Test results from US10772893B2, “2-(morpholin-4-yl)-1,7-naphthyridines” (BAYER PHARMA AKTIENGESELLSCHAFT, priority 2014, dated 2020).
Counter-ions that a name gives are not always drawn.

How the values were obtained:
Assay in all cases: Proliferation assay, crystal violet staining
HeLa cells = settings: Homo sapiens, 96 h, read-out: Inhibition of HeLa cell proliferation, HeLa cells, 4 days incubation
Method: (§1) After 24 hours, the cells of one plate (zero plate) were dyed with crystal violet (see below), whereas the medium of the other plates was replaced with fresh culture medium (200 μl) to which the test substances were added in various concentrations (0 μM, and also in the range of 0.001-10 μM; the final concentration of the solvent dimethyl sulphoxide was 0.1 or 0.5%). The cells were incubated for 4 days in the presence of the test substances. […] After washing the fixed cells three times with water, the plates were dried at room temperature. The cells were stained by adding 100 μl/measurement point of a 0.1% strength crystal violet solution (pH adjusted to pH 3 by adding acetic acid). After washing the cells three times with water, the plates were dried at room temperature. The dye was dissolved by adding 100 μl/measurement point of a 10% strength acetic acid solution. […] The percentage change in cell growth was calculated by normalizing the measured values to the absorbance values of the zero plate (=0%) and the absorbance of the untreated (0 W) cells (=100%). The IC50 values were determined by means of a four parameter fit.

DU145 cells = settings: Homo sapiens, DU-145, 96 h, read-out: Inhibition of DU145 cell proliferation, DU145 cells, 4 days incubation
Method: as §1

Caco-2 cells = type: cell-based; settings: Homo sapiens, Caco-2, 96 h, 4 days incubation, read-out: Inhibition of Caco-2 cell proliferation
Method: as §1

HeLa-MaTu-ADR cells = type: cell-based; settings: Homo sapiens, 96 h, 4 days incubation, read-out: Inhibition of HeLa-MaTu-ADR cell proliferation
Method: as §1

NCI-H460 cells = settings: Homo sapiens, NCI-H460, 96 h, read-out: Inhibition of NCI-H460 cell proliferation, NCI-H460 cells, 4 days incubation
Method: as §1

Row | SMILES | IC50 (HeLa cells) [nM] | IC50 (DU145 cells) [nM] | IC50 (Caco-2 cells) [nM] | IC50 (HeLa-MaTu-ADR cells) [nM] | IC50 (NCI-H460 cells) [nM]
1 | C[C@@H]1COCCN1c1cc(-c2ccc(S(C)(=O)=O)cc2)c2ccnc(-c3cc[nH]n3)c2n1 [Example 26, 4-(4-methanesulphonylphenyl)-2-((R)-3-methylmorpholin-4-yl)-8-(2H-pyrazol-3-yl)-[1,7]naphthyridine] | 296 | 725 | > 1000 | > 1000 | 586
2 | Cc1cc(S(C)(=O)=O)ncc1-c1cc(N2CCOC[C@H]2C)nc2c(-c3ccn[nH]3)nccc12 [Example 79, 4-[4-methyl-6-(methylsulfonyl)pyridin-3-yl]-2-[(3R)-3-methylmorpholin-4-yl]-8-(1H-pyrazol-5-yl)-1,7-naphthyridine] | 303 | 656 | 868 | 2300 | 93.7
3 | C[C@@H]1COCCN1c1cc(N=S2(=O)CCCC2)c2ccnc(-c3ccn[nH]3)c2n1 [Example 137, N-{2-[(3R)-3-methylmorpholin-4-yl]-8-(1H-pyrazol-5-yl)-1,7-naphthyridin-4-yl}tetrahydro-1H-1λ^4-thiophen-1-imine 1-oxide] | 383 | 146 | 549 | 791 | 153
4 | CS(=O)(=O)c1cc(N2CCOCC2)nc2c(-c3cc[nH]n3)nccc12 [Example 32] | 1560 | 1840 | > 3000 | > 3000 | > 3000
5 | CC(C)Oc1cc(N2CCOCC2)nc2c(-c3cc[nH]n3)nccc12 [Example 40, 4-Isopropoxy-2-(morpholin-4-yl)-8-(1H-pyrazol-3-yl)-[1,7]naphthyridine] | 2720 | 1150 | 1970 | 2260 | 672
6 | CS(=O)(=O)c1ccccc1-c1cc(N2CCOCC2)nc2c(-c3cc[nH]n3)nccc12 [Example 8, 4-(2-methanesulphonylphenyl)-2-(morpholin-4-yl)-8-(1H-pyrazol-3-yl)-[1,7]naphthyridine Hydrochloride] | 2260 | 2050 | > 3000 | > 3000 | 909
7 | COc1cc(N2CCOCC2)nc2c(-c3cc[nH]n3)nccc12 [Example 44, 4-methoxy-2-(morpholin-4-yl)-8-(1H-pyrazol-3-yl)-[1,7]naphthyridine] | 1010 | 4450 | 7690 | > 10000 | 2010
8 | Cc1nc(S(C)(=O)=O)ccc1-c1cc(N2CCOC[C@H]2C)nc2c(-c3ccn[nH]3)nccc12 [Example 73, 4-[2-methyl-6-(methylsulfonyl)pyridin-3-yl]-2-[(3R)-3-methylmorpholin-4-yl]-8-(1H-pyrazol-5-yl)-1,7-naphthyridine] | 181 | 748 | 631 | 1790 | 59
9 | C[C@@H]1COCCN1c1cc(-c2ccc(S(C)(=O)=O)cc2F)c2ccnc(-c3ccn[nH]3)c2n1 [Example 74, 4-[2-fluoro-4-(methylsulfonyl)phenyl]-2-[(3R)-3-methylmorpholin-4-yl]-8-(1H-pyrazol-5-yl)-1,7-naphthyridine] | 203 | > 1000 | > 1000 | > 1000 | > 1000
10 | c1cc2c(C3CCOCC3)cc(N3CCOCC3)nc2c(-c2cc[nH]n2)n1 [Example 60, 2-(morpholin-4-yl)-8-(1H-pyrazol-5-yl)-4-(tetrahydro-2H-pyran-4-yl)-1,7-naphthyridine] | 998 | 730 | 1980 | 2170 | 691
11 | N#Cc1cc(N2CCOCC2)nc2c(-c3cc[nH]n3)nccc12 [Example 34, 2-(morpholin-4-yl)-8-(1H-pyrazol-3-yl)-[1,7]naphthyridine-4-carbonitrile] | 1020 | 2390 | 4990 | > 3000 | 1630
12 | C[C@@H]1COCCN1c1cc(-c2cccc(S(C)(=N)=O)c2)c2ccnc(-c3ccn[nH]3)c2n1 (stereo partly drawn) [Example 31, 3-[2-((R)-3-methylmorpholin-4-yl)-8-(2H-pyrazol-3-yl)-[1,7]naphthyridine-4-yl]phenyl-S-methylsulphoximide] | 1250 | 1110 | > 3000 | > 3000 | 685

Results, then the molecule that gave them:

Row | IC50 (HeLa cells) [nM] | IC50 (DU145 cells) [nM] | IC50 (Caco-2 cells) [nM] | IC50 (HeLa-MaTu-ADR cells) [nM] | IC50 (NCI-H460 cells) [nM] | SMILES
13 | 1010 | 1660 | > 3000 | > 3000 | 1110 | O=S1(=O)CCCN1c1cc(N2CCOCC2)nc2c(-c3ccn[nH]3)nccc12 [Example 216, 4-(1,1-dioxido-1,2-thiazolidin-2-yl)-2-(morpholin-4-yl)-8-(1H-pyrazol-5-yl)-1,7-naphthyridine]
14 | 921 | 1900 | 2050 | 2150 | 673 | CC(C)S(=O)(=O)c1ccc(-c2cc(N3CCOC[C@H]3C)nc3c(-c4ccn[nH]4)nccc23)cc1 [Example 151, 4-[4-(isopropylsulfonyl)phenyl]-2-[(3R)-3-methylmorpholin-4-yl]-8-(1H-pyrazol-5-yl)-1,7-naphthyridine]
15 | 857 | 244 | 708 | 965 | 320 | CC(C)S(=O)(=O)c1cc(N2CCOCC2)nc2c(-c3ccn[nH]3)nccc12 [Example 199, 2-(morpholin-4-yl)-4-(propan-2-ylsulfonyl)-8-(1H-pyrazol-5-yl)-1,7-naphthyridine]
16 | 604 | 334 | > 1000 | 993 | 303 | COc1ncccc1-c1cc(N2CCOC[C@H]2C)nc2c(-c3ccn[nH]3)nccc12 [Example 220, 4-(2-methoxypyridin-3-yl)-2-[(3R)-3-methylmorpholin-4-yl]-8-(1H-pyrazol-5-yl)-1,7-naphthyridine]
17 | 293 | 48.6 | 529 | 882 | 75.6 | C[C@@H]1COCCN1c1cc(C2(S(C)(=O)=O)CC2)c2ccnc(-c3ccn[nH]3)c2n1 [Example 286, 2-[(3R)-3-methylmorpholin-4-yl]-4-[1-(methylsulfonyl)cyclopropyl]-8-(1H-pyrazol-5-yl)-1,7-naphthyridine]
18 | 1010 | 129 | > 3000 | > 3000 | 516 | C[C@@H]1COCCN1c1cc(OCCCS(C)(=O)=O)c2ccnc(-c3ccn[nH]3)c2n1 [Example 197, 2-[(3R)-3-methylmorpholin-4-yl]-4-[3-(methylsulfonyl)propoxy]-8-(1H-pyrazol-5-yl)-1,7-naphthyridine]
19 | 225 | 313 | 637 | 594 | 233 | C[C@@H]1COCCN1c1cc(-c2ccc(F)nc2F)c2ccnc(-c3ccn[nH]3)c2n1 [Example 228, 4-(2,6-difluoropyridin-3-yl)-2-[(3R)-3-methylmorpholin-4-yl]-8-(1H-pyrazol-5-yl)-1,7-naphthyridine]
20 | 672 | 652 | 1240 | 1490 | 219 | C[C@@H]1COCCN1c1cc(-c2ccn[nH]2)c2ccnc(-c3ccn[nH]3)c2n1 [Example 205, 2-[(3R)-3-methylmorpholin-4-yl]-4,8-di(1H-pyrazol-5-yl)-1,7-naphthyridine]
